Results published in publication PMC11173618, “C2-Symmetrical Terphenyl Derivatives as Small Molecule Inhibitors of Programmed Cell Death 1/Programmed Death Ligand 1 Protein–Protein Interaction” (Molecules, 2024).

Molecular target: T1, PD-1/PD-L1 complex (Homo sapiens, UniProt Q9NZQ7)
T1 construct: purchased cis-bio
Assay: HTRF assay of PD-1/PD-L1 complex inhibition (cis-bio kit)
Format: binding
Conditions: for inhibition at 0.5 µM / inhibition at 5 µM: 1 h, scouting mode, 5 nM PD-L1, 50 nM PD-1, read-out: HTRF [%] (percentage of dissociated PD-1/PD-L1 complex); for inhibition at 0.5 µM: inhibitor 0.5 µM; for inhibition at 5 µM: inhibitor 5 µM
Protocol: All synthesized molecules were tested in the homogeneous time-resolved fluorescence (HTRF) assay to assess their activity as inhibitors of the PD-1/PD-L1 complex (Table 1, Table 2 and Table 3). This evaluation was conducted in scouting modes, employing concentrations of 5 μM and 0.5 μM. Based on the obtained measurements, the IC50 values were estimated for each tested compound.
The certified cis-bio assay kit was used to perform the HTRF assay. Following the standard protocol, the measurement was carried out at a 20 µL final volume with a 5 nM concentration of PD-L1 and a 50 nM concentration of PD-1 in the final formulation. […] The plate was incubated for 1 h and then read on an HTRF-certified Tecan Spark 20M microplate reader. Output data were subjected to background subtraction on negative control (without PD-1) and normalization in correlation to the positive control (without inhibitor) and were then averaged. The resulting data points were then fitted with Hill’s equation to generate IC50 using Mathematica 12. […]

T1 sequence (Q9NZQ7 19-238 limits assumed, one chain of several): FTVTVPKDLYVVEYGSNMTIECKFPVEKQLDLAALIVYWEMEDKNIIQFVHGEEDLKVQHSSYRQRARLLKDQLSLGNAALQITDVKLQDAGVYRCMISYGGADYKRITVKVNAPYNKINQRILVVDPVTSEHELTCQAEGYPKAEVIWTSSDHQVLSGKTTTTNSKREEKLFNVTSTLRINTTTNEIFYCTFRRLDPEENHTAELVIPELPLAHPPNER

CC(=O)NCCNCc1cccc(OCc2cccc(-c3cc(C)cc(-c4cccc(COc5cccc(CNCCNC(C)=O)c5)c4)c3)c2)c1 [Compound 4a, N,N’-(((((((5′-methyl-[1,1′:3′,1′′-terphenyl]-3,3′′-diyl)bis(methylene))bis(oxy))bis(3,1-phenylene))bis(methylene))bis(azanediyl))bis(ethane-2,1-diyl))diacetamide]
inhibition at 0.5 µM: 80.4 ± 18.8%
inhibition at 5 µM: 56.8 ± 15.4%

CC(=O)NCCNCc1cccc(OCc2cccc(-c3cc(C)cc(-c4cccc(COc5cccc(CNCCNC(C)=O)c5Br)c4)c3)c2)c1Br [Compound 4c, N,N’-(((((((5′-methyl-[1,1′:3′,1′′-terphenyl]-3,3′′-diyl)bis(methylene))bis(oxy))bis(2-bromo-3,1-phenylene))bis(methylene))bis(azanediyl))bis(ethane-2,1-diyl))diacetamide]
inhibition at 0.5 µM: 88.6 ± 14%
inhibition at 5 µM: 70.8 ± 18.8%

CC(=O)NCCNCc1cccc(OCc2cccc(-c3cc(C)cc(-c4cccc(COc5cccc(CNCCNC(C)=O)c5)c4F)c3)c2F)c1 [Compound 4d, N,N’-(((((((2,2′′-difluoro-5′-methyl-[1,1′:3′,1′′-terphenyl]-3,3′′-diyl)bis(methylene))bis(oxy))bis(3,1-phenylene))bis(methylene))bis(azanediyl))bis(ethane-2,1-diyl))diacetamide]
inhibition at 0.5 µM: 89.9 ± 19.8%
inhibition at 5 µM: 22.5 ± 9.17%

CC(=O)NCCNCc1cccc(OCc2cccc(-c3cc(C)cc(-c4cccc(COc5cccc(CNCCNC(C)=O)c5Br)c4C)c3)c2C)c1Br [Compound 4e, N,N’-(((((((2,2′′,5′-trimethyl-[1,1′:3′,1′′-terphenyl]-3,3′′-diyl)bis(methylene))bis(oxy))bis(2-bromo-3,1-phenylene))bis(methylene))bis(azanediyl))bis(ethane-2,1-diyl))diacetamide]
inhibition at 0.5 µM: 93.9 ± 5.5%
inhibition at 5 µM: 94.2 ± 2.3%
IC50 Estimated (estimated from scouting data (5 and 0.5 µM) by translation of the Hill fit of 7b, 7j, 7m): not active

CC(=O)NCCNCc1cc(F)c(OCc2cccc(-c3cc(C)cc(-c4cccc(COc5cc(F)c(CNCCNC(C)=O)cc5F)c4C)c3)c2C)cc1F [Compound 4f, N,N’-(((((((2,2′′,5′-trimethyl-[1,1′:3′,1′′-terphenyl]-3,3′′-diyl)bis(methylene))bis(oxy))bis(2,5-difluoro-4,1-phenylene))bis(methylene))bis(azanediyl))bis(ethane-2,1-diyl))diacetamide]
inhibition at 0.5 µM: 85.7 ± 10.9%
inhibition at 5 µM: 28.2 ± 1.5%

COc1cccc(CNCCNC(C)=O)c1OCc1ccccc1-c1cc(C)cc(-c2ccccc2COc2c(CNCCNC(C)=O)cccc2OC)c1 [Compound 5a, N,N’-(((((((5′-methyl-[1,1′:3′,1′′-terphenyl]-2,2′′-diyl)bis(methylene))bis(oxy))bis(3-methoxy-2,1-phenylene))bis(methylene))bis(azanediyl))bis(ethane-2,1-diyl))diacetamide]
inhibition at 0.5 µM: 84.3 ± 13.1%
inhibition at 5 µM: 78.4 ± 6.4%

COc1cc(-c2cc(C)cc(-c3ccc(COc4c(CNCCNC(C)=O)cccc4OC)c(OC)c3)c2)ccc1COc1c(CNCCNC(C)=O)cccc1OC [Compound 6a, N,N’-(((((((3,3′′-dimethoxy-5′-methyl-[1,1′:3′,1′′-terphenyl]-4,4′′-diyl)bis(methylene))bis(oxy))bis(3-methoxy-2,1-phenylene))bis(methylene))bis(azanediyl))bis(ethane-2,1-diyl))diacetamide]
inhibition at 0.5 µM: 86.1 ± 4.5%
inhibition at 5 µM: 59.2 ± 2.6%

COc1cc(-c2cccc(-c3ccc(COc4ccc(CNCCNC(C)=O)cc4OC)c(OC)c3)c2C)ccc1COc1ccc(CNCCNC(C)=O)cc1OC [Compound 7a, N,N’-(((((((3,3′′-dimethoxy-2′-methyl-[1,1′:3′,1′′-terphenyl]-4,4′′-diyl)bis(methylene))bis(oxy))bis(3-methoxy-4,1-phenylene))bis(methylene))bis(azanediyl))bis(ethane-2,1-diyl))diacetamide]
inhibition at 0.5 µM: 72.5 ± 8.1%
inhibition at 5 µM: 23.8 ± 0.3%

COc1cc(-c2cccc(-c3ccc(COc4ccc(CNCCO)cc4OC)c(OC)c3)c2C)ccc1COc1ccc(CNCCO)cc1OC [Compound 7b, 2,2′-((((((3,3′′-dimethoxy-2′-methyl-[1,1′:3′,1′′-terphenyl]-4,4′′-diyl)bis(methylene))bis(oxy))bis(3-methoxy-4,1-phenylene))bis(methylene))bis(azanediyl))bis(ethan-1-ol)]
inhibition at 0.5 µM: 60.9 ± 3.9%
inhibition at 5 µM: 11.9 ± 1%

COc1cc(CNCCNC(C)=O)ccc1OCc1ccc(-c2cccc(-c3ccc(COc4ccc(CNCCNC(C)=O)cc4OC)cc3C)c2C)c(C)c1 [Compound 7c, N,N’-(((((((2,2′,2′′-trimethyl-[1,1′:3′,1′′-terphenyl]-4,4′′-diyl)bis(methylene))bis(oxy))bis(3-methoxy-4,1-phenylene))bis(methylene))bis(azanediyl))bis(ethane-2,1-diyl))diacetamide]
inhibition at 0.5 µM: 82.1 ± 8%
inhibition at 5 µM: 77.1 ± 0.7%

COc1cc(CNCCO)ccc1OCc1ccc(-c2cccc(-c3ccc(COc4ccc(CNCCO)cc4OC)cc3C)c2C)c(C)c1 [Compound 7d, 2,2′-((((((2,2′,2′′-trimethyl-[1,1′:3′,1′′-terphenyl]-4,4′′-diyl)bis(methylene))bis(oxy))bis(3-methoxy-4,1-phenylene))bis(methylene))bis(azanediyl))bis(ethan-1-ol)]
inhibition at 0.5 µM: 86.1 ± 12.7%
inhibition at 5 µM: 35.7 ± 3.3%

COc1cc(CNCCNC(C)=O)ccc1OCc1ccc(-c2cccc(-c3ccc(COc4ccc(CNCCNC(C)=O)cc4OC)c(C)c3)c2C)cc1C [Compound 7e, N,N’-(((((((2′,3,3′′-trimethyl-[1,1′:3′,1′′-terphenyl]-4,4′′-diyl)bis(methylene))bis(oxy))bis(3-methoxy-4,1-phenylene))bis(methylene))bis(azanediyl))bis(ethane-2,1-diyl))diacetamide]
inhibition at 0.5 µM: 93.8 ± 3.6%
inhibition at 5 µM: 55.3 ± 13.4%

COc1cc(CNCCO)ccc1OCc1ccc(-c2cccc(-c3ccc(COc4ccc(CNCCO)cc4OC)c(C)c3)c2C)cc1C [Compound 7f, 2,2′-((((((2′,3,3′′-trimethyl-[1,1′:3′,1′′-terphenyl]-4,4′′-diyl)bis(methylene))bis(oxy))bis(3-methoxy-4,1-phenylene))bis(methylene))bis(azanediyl))bis(ethan-1-ol)]
inhibition at 0.5 µM: 93.1 ± 17.4%
inhibition at 5 µM: 46.4 ± 9.6%

COc1cc(CNC(CO)CO)ccc1OCc1ccc(-c2cccc(-c3ccc(COc4ccc(CNC(CO)CO)cc4OC)c(C)c3)c2C)cc1C [Compound 7g, 2,2′-((((((2′,3,3′′-trimethyl-[1,1′:3′,1′′-terphenyl]-4,4′′-diyl)bis(methylene))bis(oxy))bis(3-methoxy-4,1-phenylene))bis(methylene))bis(azanediyl))bis(propane-1,3-diol)]
inhibition at 0.5 µM: 94.5 ± 18.1%
inhibition at 5 µM: 53.7 ± 1.7%

CC(=O)NCCNCc1cc(F)c(OCc2ccc(-c3cccc(-c4ccc(COc5cc(F)c(CNCCNC(C)=O)cc5F)c(C)c4)c3C)cc2C)cc1F [Compound 7h, N,N’-(((((((2′,3,3′′-trimethyl-[1,1′:3′,1′′-terphenyl]-4,4′′-diyl)bis(methylene))bis(oxy))bis(2,5-difluoro-4,1-phenylene))bis(methylene))bis(azanediyl))bis(ethane-2,1-diyl))diacetamide]
inhibition at 0.5 µM: 84.1 ± 26.4%
inhibition at 5 µM: 69 ± 0.9%

Cc1cc(-c2cccc(-c3ccc(COc4cc(F)c(CNCCO)cc4F)c(C)c3)c2C)ccc1COc1cc(F)c(CNCCO)cc1F [Compound 7i, 2,2′-((((((2′,3,3′′-trimethyl-[1,1′:3′,1′′-terphenyl]-4,4′′-diyl)bis(methylene))bis(oxy))bis(2,5-difluoro-4,1-phenylene))bis(methylene))bis(azanediyl))bis(ethan-1-ol)]
inhibition at 0.5 µM: 78.5 ± 7.3%
inhibition at 5 µM: 42.2 ± 7.2%

CC(=O)NCCNCc1cccc(OCc2ccc(-c3cccc(-c4ccc(COc5cccc(CNCCNC(C)=O)c5Br)cc4)c3C)cc2)c1Br [Compound 7j, N,N’-(((((((2′-methyl-[1,1′:3′,1′′-terphenyl]-4,4′′-diyl)bis(methylene))bis(oxy))bis(2-bromo-3,1-phenylene))bis(methylene))bis(azanediyl))bis(ethane-2,1-diyl))diacetamide]
inhibition at 0.5 µM: 40.4 ± 1.5%
inhibition at 5 µM: 11.1 ± 0.3%

Cc1c(-c2cccc(COc3cccc(CNCCO)c3Br)c2)cccc1-c1cccc(COc2cccc(CNCCO)c2Br)c1 [Compound 8a, 2,2′-((((((2′-methyl-[1,1′:3′,1′′-terphenyl]-3,3′′-diyl)bis(methylene))bis(oxy))bis(2-bromo-3,1-phenylene))bis(methylene))bis(azanediyl))bis(ethan-1-ol)]
inhibition at 0.5 µM: 94.6 ± 0.1%
inhibition at 5 µM: 23 ± 0.1%

COc1cccc(CNCCO)c1OCc1cccc(-c2cccc(-c3cccc(COc4c(CNCCO)cccc4OC)c3)c2C)c1 [Compound 8c, 2,2′-((((((2′-methyl-[1,1′:3′,1′′-terphenyl]-3,3′′-diyl)bis(methylene))bis(oxy))bis(3-methoxy-2,1-phenylene))bis(methylene))bis(azanediyl))bis(ethan-1-ol)]
inhibition at 0.5 µM: 104 ± 3.3%
inhibition at 5 µM: 61.1 ± 4.5%
